This is an account of results in patent US8530493B2, “Indolopyridines as Eg5 kinesin modulators” (4SC AG, priority 2006, dated 2013).

In test [1] the test system is RKO p27 or p21 uninduced (proliferating) colon adenocarcinoma cells. Description: Alamar Blue cell viability assay, RKO p27 or p21 uninduced (proliferating). The following applies: Homo sapiens, RKOp27, 72 h, Table B2, anti-proliferative/cytotoxic activity, read-out: −log EC50 RKO p27 or p21 uninduced (proliferating) (converted). Type of test: cell-based. In outline: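 RKO p21 or p27 subclones grown without Ponasterone A, i.e. proliferating, exposed 24 h after seeding to semi-log compound dilutions in DMEM/10% FCS (1% DMSO controls) for 72 h at 37° C. Alamar Blue fluorescence (544/590 nm) read relative to untreated cells; EC50 from dose-response curves, given as −log EC50 (mol/l).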

Test [2] concerns RKO p27 or p21 induced (arrested) colon adenocarcinoma cells. Description: Alamar Blue cell viability assay, RKO p27 or p21 induced (arrested). Type of test: cell-based. The conditions noted are these: Homo sapiens, RKOp27, Table B2, cells arrested by Ponasterone A, 72 hours, read-out: −log EC50 RKO p27 or p21 induced (arrested) (converted). In a few lines: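 RKOp21 or RKOp27 subclones in DMEM/10% FCS with 10 μM Ponasterone A to induce p21/p27 arrest, seeded 24 h before compound; triplicate 72 h exposure at 37 °C. Alamar Blue fluorescence (544/590 nm) as % of untreated (1% DMSO) cells; EC50 from dose-response curves, reported as −log EC50 (mol/l).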

Take `C[C@@]12Cc3c([nH]c4ccc(Cl)cc34)[C@@H](c3cccc(O)c3)N1C(=O)N(CCNC1CC1)C2=O` (racemic) [Example 102, (3aSR,10RS)-6-Chloro-2-(2-cyclopropylamino-ethyl)-10-(3-hydroxy-phenyl)-3a-methyl-3a,4,9,10-tetrahydro-2,9,10a-triaza-cyclopenta[b]fluorene-1,3-dione]: the EC50 in test [1] was not above 39.8 nM; in test [2], not below 3160 nM.

On to `COc1ccc2[nH]c3c(c2c1)C[C@@]1(C)C(=O)N(CCCNC(C)C)C(=O)N1[C@@H]3c1cccc(O)c1` (racemic) [Example 67, (3aSR,10RS)-10-(3-Hydroxy-phenyl)-2-(3-isopropylamino-propyl)-6-methoxy-3a-methyl-3a,4,9,10-tetrahydro-2,9,10a-triaza-cyclopenta[b]fluorene-1,3-dione], for which the EC50 was not above 39.8 nM in test [1] and not below 3160 nM in test [2].

Regarding `C[C@@]12Cc3c([nH]c4ccc(Cl)cc34)[C@@H](c3cccc(O)c3)N1C(=O)N(CCCNC1CCC1)C2=O` (racemic) [Example 138, (3aSR,10RS)-6-Chloro-2-(3-cyclobutylamino-propyl)-10-(3-hydroxy-phenyl)-3a-methyl-3a,4,9,10-tetrahydro-2,9,10a-triaza-cyclopenta[b]fluorene-1,3-dione], the EC50 in test [1] is not above 39.8 nM; in test [2], not below 3160 nM.

On to `C[C@@]12Cc3c([nH]c4ccc(Cl)cc34)[C@@H](c3cccc(O)c3)N1C(=O)N(CCN1CC=CC1)C2=O` (racemic) [Example 109, (3aSR,10RS)-6-Chloro-2-[2-(2,5-dihydro-pyrrol-1-yl)-ethyl]-10-(3-hydroxy-phenyl)-3a-methyl-3a,4,9,10-tetrahydro-2,9,10a-triaza-cyclopenta[b]fluorene-1,3-dione], for which the EC50 in test [1] was not above 39.8 nM; in test [2], not below 316 nM.

`COc1ccc2[nH]c3c(c2c1)C[C@@]1(C)C(=O)N(CCNC(C)(C)C)C(=O)N1[C@@H]3c1cccc(O)c1` (racemic) [Example 72, (3aSR,10RS)-2-(2-tert-Butylamino-ethyl)-10-(3-hydroxy-phenyl)-6-methoxy-3a-methyl-3a,4,9,10-tetrahydro-2,9,10a-triaza-cyclopenta[b]fluorene-1,3-dione]: the half-maximal effective concentration (EC50) is not above 39.8 nM in test [1] and not below 3160 nM in test [2].

As for `C[C@@]12Cc3c([nH]c4ccc(Cl)cc34)[C@@H](c3cccc(O)c3)N1C(=O)N(CCNCC1CC1)C2=O` (racemic) [Example 108, (3aSR,10RS)-6-Chloro-2-[2-(cyclopropylmethyl-amino)-ethyl]-10-(3-hydroxy-phenyl)-3a-methyl-3a,4,9,10-tetrahydro-2,9,10a-triaza-cyclopenta[b]fluorene-1,3-dione], the 50% effective concentration (EC50) was not above 39.8 nM in test [1] and not below 316 nM in test [2].

In the case of `COc1ccc2[nH]c3c(c2c1)C[C@@]1(C)C(=O)N(CCCN2CC=CCC2)C(=O)N1[C@@H]3c1cccc(O)c1` (racemic) [Example 106, (3aSR,10RS)-2-[3-(3,6-Dihydro-2H-pyridin-1-yl)-propyl]-10-(3-hydroxy-phenyl)-6-methoxy-3a-methyl-3a,4,9,10-tetrahydro-2,9,10a-triaza-cyclopenta[b]fluorene-1,3-dione], the EC50 is not above 39.8 nM in test [1] and not below 316 nM in test [2].

`C=CCNCCCN1C(=O)N2[C@H](c3cccc(O)c3)c3[nH]c4ccc(Cl)cc4c3C[C@@]2(C)C1=O` (racemic) [Example 139, (3aSR,10RS)-2-(3-Allylamino-propyl)-6-chloro-10-(3-hydroxy-phenyl)-3a-methyl-3a,4,9,10-tetrahydro-2,9,10a-triaza-cyclopenta[b]fluorene-1,3-dione]: the results for the EC50 in test [1] and in test [2] were not above 39.8 nM and not below 3160 nM, respectively.

As for `C=CCNCCN1C(=O)N2[C@H](c3cccc(O)c3)c3[nH]c4ccc(OC)cc4c3C[C@@]2(C)C1=O` (racemic) [Example 84, (3aSR,10RS)-2-(2-Allylamino-ethyl)-10-(3-hydroxy-phenyl)-6-methoxy-3a-methyl-3a,4,9,10-tetrahydro-2,9,10a-triaza-cyclopenta[b]fluorene-1,3-dione], the results for the concentration giving a half-maximal response (EC50) in test [1] and in test [2] were not above 39.8 nM and not below 3160 nM, respectively.

As for `CCN(CCOC)CCN1C(=O)N2[C@H](c3cccc(O)c3)c3[nH]c4ccc(OC)cc4c3C[C@@]2(C)C1=O` (racemic) [Example 79, (3aSR,10RS)-2-[2-[Ethyl-(2-methoxy-ethyl)-amino]-ethyl}-10-(3-hydroxy-phenyl)-6-methoxy-3a-methyl-3a,4,9,10-tetrahydro-2,9,10a-triaza-cyclopenta[b]fluorene-1,3-dione], the concentration giving a half-maximal response (EC50) in test [1] is not above 39.8 nM; in test [2], not below 3160 nM.

Take `CNCCCN1C(=O)N2[C@H](c3cccc(O)c3)c3[nH]c4ccc(OC)cc4c3C[C@@]2(C)C1=O` (racemic) [Example 76, (3aSR,10RS)-10-(3-Hydroxy-phenyl)-6-methoxy-3a-methyl-2-(3-methylamino-propyl)-3a,4,9,10-tetrahydro-2,9,10a-triaza-cyclopenta[b]fluorene-1,3-dione]: the EC50 was not above 39.8 nM in test [1] and not below 3160 nM in test [2].

`CCN(CCO)CCCN1C(=O)N2[C@H](c3cccc(O)c3)c3[nH]c4ccc(OC)cc4c3C[C@@]2(C)C1=O` (racemic) [Example 89, (3aSR,10RS)-2-{3-[Ethyl-(2-hydroxy-ethyl)-amino]-propyl}-10-(3-hydroxy-phenyl)-6-methoxy-3a-methyl-3a,4,9,10-tetrahydro-2,9,10a-triaza-cyclopenta[b]fluorene-1,3-dione]: the values for the concentration for a half-maximal effect (EC50) in test [1] and in test [2] were not above 39.8 nM and not below 3160 nM, respectively.

Take `CN1CCN(CCN2C(=O)N3[C@H](c4cccc(O)c4)c4[nH]c5ccc(Cl)cc5c4C[C@@]3(C)C2=O)CC1` (racemic) [Example 111, (3aSR,10RS)-6-Chloro-10-(3-hydroxy-phenyl)-3a-methyl-2-[2-(4-methyl-piperazin-1-yl)-ethyl]-3a,4,9,10-tetrahydro-2,9,10a-triaza-cyclopenta[b]fluorene-1,3-dione]: the concentration for a half-maximal effect (EC50) in test [1] was not above 39.8 nM; in test [2], not below 316 nM.

Consider `CCN(C)CCCN1C(=O)N2[C@H](c3cccc(O)c3)c3[nH]c4ccc(Cl)cc4c3C[C@@]2(C)C1=O` (racemic) [Example 140, (3aSR,10RS)-6-Chloro-2-[3-(ethyl-methyl-amino)-propyl]-10-(3-hydroxy-phenyl)-3a-methyl-3a,4,9,10-tetrahydro-2,9,10a-triaza-cyclopenta[b]fluorene-1,3-dione], for which the concentration giving a half-maximal response (EC50) in test [1] is not above 39.8 nM; in test [2], not below 3160 nM.

In the case of `COc1ccc2[nH]c3c(c2c1)C[C@@]1(C)C(=O)N(CCN2CC=CC2)C(=O)N1[C@@H]3c1cccc(O)c1` (racemic) [Example 119, (3aSR,10RS)-2-[2-(2,5-Dihydro-pyrrol-1-yl)-ethyl]-10-(3-hydroxy-phenyl)-6-methoxy-3a-methyl-3a,4,9,10-tetrahydro-2,9,10a-triaza-cyclopenta[b]fluorene-1,3-dione], the EC50 in test [1] is not above 39.8 nM; in test [2] it was not below 316 nM.

Turning to `CCN(CCO)CCN1C(=O)N2[C@H](c3cccc(O)c3)c3[nH]c4ccc(OC)cc4c3C[C@@]2(C)C1=O` (racemic) [Example 78, (3aSR,10RS)-2-[2-[Ethyl-(2-hydroxy-ethyl)-amino]-ethyl}-10-(3-hydroxy-phenyl)-6-methoxy-3a-methyl-3a,4,9,10-tetrahydro-2,9,10a-triaza-cyclopenta[b]fluorene-1,3-dione], the values for the EC50 in test [1] and in test [2] were not above 39.8 nM and not below 3160 nM, respectively.

Regarding `C[C@@]12Cc3c([nH]c4ccc(Cl)cc34)[C@@H](c3cccc(O)c3)N1C(=O)N(CCN1CCCCC1)C2=O` (racemic) [Example 101, (3aSR,10RS)-6-Chloro-10-(3-hydroxy-phenyl)-3a-methyl-2-(2-piperidin-1-yl-ethyl)-3a,4,9,10-tetrahydro-2,9,10a-triaza-cyclopenta[b]fluorene-1,3-dione], the EC50 in test [1] was not above 39.8 nM; in test [2] it was not below 3160 nM.

For the compound `C=CCN(C)CCN1C(=O)N2[C@H](c3cccc(O)c3)c3[nH]c4ccc(Cl)cc4c3C[C@@]2(C)C1=O` (racemic) [Example 117, (3aSR,10RS)-2-[2-(Allyl-methyl-amino)-ethyl]-6-chloro-10-(3-hydroxy-phenyl)-3a-methyl-3a,4,9,10-tetrahydro-2,9,10a-triaza-cyclopenta[b]fluorene-1,3-dione], the EC50 is not above 39.8 nM in test [1] and not below 316 nM in test [2].
